{
  "source": "ChEMBL document CHEMBL5321270",
  "about": "“Discovery of Pyrazolone Carbothioamide Derivatives as Inhibitors of the Pdr1-KIX Interaction for Combinational Treatment of Azole-Resistant Candidiasis” (J Med Chem, 2023)",
  "key": {"Candida parapsilosis": {"system": "Candida parapsilosis", "test": "Antifungal activity against Candida parapsilosis 20090 assessed as fungal growth inhibition incubated for 48 hrs by microplate reader assay", "type": "functional", "conditions": "Lodderomyces parapsilosis"}, "Nakaseomyces glabratus [1]": {"system": "Nakaseomyces glabratus", "test": "Antifungal activity against fluconazole-resistant Candida glabrata 0161 assessed as fluconazole fractional inhibitory concentration incubated for 48 hrs in presence of fluconazole by microplate reader assay", "type": "functional"}, "Nakaseomyces glabratus [2]": {"system": "Nakaseomyces glabratus", "test": "Antifungal activity against fluconazole-resistant Candida glabrata 8535 assessed as fungal growth inhibition incubated for 48 hrs by microplate reader assay", "type": "functional"}, "Nakaseomyces glabratus [3]": {"system": "Nakaseomyces glabratus", "test": "Antifungal activity against fluconazole-resistant Candida glabrata 0161 assessed as fungal growth inhibition incubated for 48 hrs by microplate reader assay", "type": "functional"}, "Aspergillus fumigatus": {"system": "Aspergillus fumigatus", "test": "Antifungal activity against Aspergillus fumigatus 7544 assessed as fungal growth inhibition incubated for 48 hrs by microplate reader assay", "type": "functional"}, "Nannizzia gypsea": {"system": "Nannizzia gypsea", "test": "Antifungal activity against Microsporum gypseum assessed as fungal growth inhibition incubated for 48 hrs by microplate reader assay", "type": "functional"}, "Nakaseomyces glabratus [4]": {"system": "Nakaseomyces glabratus", "test": "Antifungal activity against fluconazole-resistant Candida glabrata 9256 assessed as fungal growth inhibition incubated for 48 hrs by microplate reader assay", "type": "functional"}, "Cryptococcus neoformans": {"system": "Cryptococcus neoformans", "test": "Antifungal activity against Cryptococcus neoformans H99 assessed as fungal growth inhibition incubated for 48 hrs by microplate reader assay", "type": "functional"}, "Nakaseomyces glabratus [5]": {"system": "Nakaseomyces glabratus", "test": "Synergistic antifungal activity against fluconazole-resistant Candida glabrata 0161 assessed as fractional inhibitory concentration index incubated for 48 hrs in presence of fluconazole by checkerboard microdilution method", "type": "functional"}, "[6]": {"test": "Inhibition of fluorescent probe FITC tagged PDR1-KIX domain (unknown origin) protein-protein interaction assessed as inhibition constant incubated for 2 hrs by fluorescence polarization binding assay"}, "Trichophyton rubrum": {"system": "Trichophyton rubrum", "test": "Antifungal activity against Trichophyton rubrum assessed as fungal growth inhibition incubated for 48 hrs by microplate reader assay", "type": "functional"}, "Candida tropicalis": {"system": "Candida tropicalis", "test": "Antifungal activity against Candida tropicalis 10186 assessed as fungal growth inhibition incubated for 48 hrs by microplate reader assay", "type": "functional"}, "Candida albicans": {"system": "Candida albicans", "test": "Antifungal activity against Candida albicans assessed as fungal growth inhibition incubated for 48 hrs by microplate reader assay", "type": "functional"}, "[Candida] auris [7]": {"system": "[Candida] auris", "test": "Antifungal activity against Candida auris 0030 assessed as fungal growth inhibition incubated for 48 hrs by microplate reader assay", "type": "functional", "conditions": "Candidozyma auris"}, "[Candida] auris [8]": {"system": "[Candida] auris", "test": "Antifungal activity against Candida auris 15448 assessed as fungal growth inhibition incubated for 48 hrs by microplate reader assay", "type": "functional", "conditions": "Candidozyma auris"}, "Nakaseomyces glabratus [9]": {"system": "Nakaseomyces glabratus", "test": "Antifungal activity against fluconazole-resistant Candida glabrata 0161 assessed as fractional inhibitory concentration incubated for 48 hrs in presence of fluconazole by microplate reader assay", "type": "functional"}, "[10]": {"test": "Aqueous solubility of compound", "type": "physicochemical"}, "[11]": {"test": "Binding affinity to Candida glabrata KIX domain assessed as dissociation constant", "design": "species or system Nakaseomyces glabratus"}, "Nakaseomyces glabratus [12]": {"system": "Nakaseomyces glabratus", "test": "Antifungal activity against FLC-resistant Candida glabrata 0161 infected in cyclophosphamide immunosuppressed ICR mouse model assessed as inhibition of fungal growth in kidney at 40 mg/kg,ip administrated for 5 days", "type": "functional, organism-based", "conditions": "time 5.0 day"}},
  "note": "Calls of active or inactive are those of the source. The calls are words filed in the database; no cut-off is given here.",
  "data": [
    {"smiles": "Nc1cc(=O)n(C(=S)Nc2ccc(Cl)c(Cl)c2)[nH]1", "values": [
      {"measurement": "MIC", "setting": "Candida parapsilosis", "result": 4, "unit": "µg/mL"},
      {"measurement": "fluconazole MIC in combination", "setting": "Nakaseomyces glabratus [1]", "result": 0.25, "unit": "µg/mL"},
      {"measurement": "MIC", "setting": "Nakaseomyces glabratus [2]", "result": 0.25, "unit": "µg/mL"},
      {"measurement": "MIC", "setting": "Nakaseomyces glabratus [3]", "result": 0.25, "unit": "µg/mL"},
      {"measurement": "MIC", "setting": "Aspergillus fumigatus", "result": 16, "unit": "µg/mL"},
      {"measurement": "MIC", "setting": "Nannizzia gypsea", "result": 1, "unit": "µg/mL"},
      {"measurement": "MIC", "setting": "Nakaseomyces glabratus [4]", "result": 0.25, "unit": "µg/mL"},
      {"measurement": "MIC", "setting": "Cryptococcus neoformans", "result": 0.063, "unit": "µg/mL"},
      {"measurement": "fractional inhibitory concentration index (FICI)", "setting": "Nakaseomyces glabratus [5]", "result": 0.53},
      {"measurement": "Ki", "setting": "[6]", "result": 109, "unit": "µM"},
      {"measurement": "MIC", "setting": "Trichophyton rubrum", "result": 1, "unit": "µg/mL"},
      {"measurement": "MIC", "setting": "Candida tropicalis", "result": 4, "unit": "µg/mL"},
      {"measurement": "MIC", "setting": "Candida albicans", "result": 4, "unit": "µg/mL"},
      {"measurement": "MIC", "setting": "[Candida] auris [7]", "result": 2, "unit": "µg/mL"},
      {"measurement": "MIC", "setting": "[Candida] auris [8]", "result": 2, "unit": "µg/mL"},
      {"measurement": "FIC", "setting": "Nakaseomyces glabratus [9]", "result": 0.13, "unit": "µg/mL"}
    ]},
    {"smiles": "Nc1cc(=O)n(C(=S)Nc2ccccc2Cl)[nH]1", "values": [
      {"measurement": "MIC", "setting": "Candida parapsilosis", "result": 4, "unit": "µg/mL"},
      {"measurement": "fluconazole MIC in combination", "setting": "Nakaseomyces glabratus [1]", "result": 16, "unit": "µg/mL"},
      {"measurement": "MIC", "setting": "Nakaseomyces glabratus [2]", "result": 0.25, "unit": "µg/mL"},
      {"measurement": "MIC", "setting": "Nakaseomyces glabratus [3]", "result": 0.5, "unit": "µg/mL"},
      {"measurement": "MIC", "setting": "Aspergillus fumigatus", "result": 16, "unit": "µg/mL"},
      {"measurement": "MIC", "setting": "Nannizzia gypsea", "result": 1, "unit": "µg/mL"},
      {"measurement": "MIC", "setting": "Nakaseomyces glabratus [4]", "result": 0.25, "unit": "µg/mL"},
      {"measurement": "MIC", "setting": "Cryptococcus neoformans", "result": 0.063, "unit": "µg/mL"},
      {"measurement": "fractional inhibitory concentration index (FICI)", "setting": "Nakaseomyces glabratus [5]", "result": 0.76},
      {"measurement": "Ki", "setting": "[6]", "result": 85.8, "unit": "µM"},
      {"measurement": "MIC", "setting": "Trichophyton rubrum", "result": 1, "unit": "µg/mL"},
      {"measurement": "MIC", "setting": "Candida tropicalis", "result": 4, "unit": "µg/mL"},
      {"measurement": "MIC", "setting": "Candida albicans", "result": 4, "unit": "µg/mL"},
      {"measurement": "MIC", "setting": "[Candida] auris [7]", "result": 2, "unit": "µg/mL"},
      {"measurement": "MIC", "setting": "[Candida] auris [8]", "result": 2, "unit": "µg/mL"},
      {"measurement": "FIC", "setting": "Nakaseomyces glabratus [9]", "result": 0.13, "unit": "µg/mL"}
    ]},
    {"smiles": "N#CCC(=O)NNC(=S)Nc1ccc(Cl)c(Cl)c1", "values": [
      {"measurement": "fluconazole MIC in combination", "setting": "Nakaseomyces glabratus [1]", "result": 2, "unit": "µg/mL"},
      {"measurement": "MIC", "setting": "Nakaseomyces glabratus [3]", "result": 32, "unit": "µg/mL"},
      {"measurement": "fractional inhibitory concentration index (FICI)", "setting": "Nakaseomyces glabratus [5]", "result": 0.31},
      {"measurement": "Ki", "setting": "[6]", "result": 29.2, "unit": "µM"},
      {"measurement": "solubility", "setting": "[10]", "result": 9.12, "unit": "µg/mL"},
      {"measurement": "Kd", "setting": "[11]", "result": 2.8, "unit": "µM"},
      {"measurement": "Activity", "setting": "Nakaseomyces glabratus [12]", "result": "Active"},
      {"measurement": "FIC", "setting": "Nakaseomyces glabratus [9]", "result": 8, "unit": "µg/mL"}
    ]}
  ]
}
